Source: patent US10285989B2, “Pyrimidinone amide compounds as PDE2 inhibitors” (Merck Sharp & Dohme Corp., priority 2015, dated 2019)
Read-outs that look alike come from different tables or passages of the source.

What was measured:
Rhesus PDE2A3 = Rhesus PDE2A3 (Macaca mulatta, UniProt B3VTJ2); assay: PDE2 fluorescence polarization (IMAP FP) inhibition assay, rhesus PDE2A3; assay type: biochemical, rhesus macaque
human PDE2A1 = human PDE2A1 (Homo sapiens (Human), UniProt O00408); assay: PDE2 IMAP FP inhibition assay, human PDE2A1 (selectivity panel format); assay type: biochemical
human PDE2A1, sequence (O00408 other isoform, or with tags, fused parts or gaps): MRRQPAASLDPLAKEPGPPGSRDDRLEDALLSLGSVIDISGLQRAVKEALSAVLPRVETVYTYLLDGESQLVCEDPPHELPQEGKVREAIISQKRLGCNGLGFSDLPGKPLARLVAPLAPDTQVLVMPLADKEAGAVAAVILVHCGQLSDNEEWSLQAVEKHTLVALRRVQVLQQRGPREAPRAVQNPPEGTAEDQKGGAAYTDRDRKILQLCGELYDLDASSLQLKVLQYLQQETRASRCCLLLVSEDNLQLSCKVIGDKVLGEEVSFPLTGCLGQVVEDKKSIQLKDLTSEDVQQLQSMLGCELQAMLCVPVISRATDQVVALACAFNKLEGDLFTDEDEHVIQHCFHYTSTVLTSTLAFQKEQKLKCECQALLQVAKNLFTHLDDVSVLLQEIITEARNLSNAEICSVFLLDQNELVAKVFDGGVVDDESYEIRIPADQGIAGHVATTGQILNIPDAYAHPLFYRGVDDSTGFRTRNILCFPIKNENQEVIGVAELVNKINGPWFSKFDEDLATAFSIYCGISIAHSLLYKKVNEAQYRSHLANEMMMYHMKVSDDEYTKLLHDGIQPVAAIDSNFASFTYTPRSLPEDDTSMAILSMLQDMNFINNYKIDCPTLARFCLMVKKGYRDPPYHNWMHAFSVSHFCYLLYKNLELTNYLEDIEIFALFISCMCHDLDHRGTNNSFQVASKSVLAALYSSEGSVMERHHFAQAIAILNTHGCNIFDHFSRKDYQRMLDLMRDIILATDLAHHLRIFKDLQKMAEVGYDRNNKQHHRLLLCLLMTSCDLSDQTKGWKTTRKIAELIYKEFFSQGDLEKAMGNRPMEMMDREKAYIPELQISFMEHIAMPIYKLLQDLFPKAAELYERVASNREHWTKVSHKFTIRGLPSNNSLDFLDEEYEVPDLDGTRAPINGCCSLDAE
How it was run: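 Enzyme dosed to give about 20% substrate turnover acts for 60 min at room temperature on 50 nM FAM-cAMP plus 1000 nM cGMP (Tris pH 7.2, MgCl2, DTT, Tween-20 buffer). IMAP binding solution then stops the reaction; after 1 h, polarization is measured from parallel and perpendicular fluorescence.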

P-glycoprotein (P-gp) = P-glycoprotein (P-gp) (Homo sapiens (Human), UniProt P08183); assay: P-gp transport, experimental BA/AB ratio, human; assay type: in vitro ADME; conditions: LLC-PK1, 1 μM substrate concentration
P-glycoprotein (P-gp), sequence (P08183 whole entry): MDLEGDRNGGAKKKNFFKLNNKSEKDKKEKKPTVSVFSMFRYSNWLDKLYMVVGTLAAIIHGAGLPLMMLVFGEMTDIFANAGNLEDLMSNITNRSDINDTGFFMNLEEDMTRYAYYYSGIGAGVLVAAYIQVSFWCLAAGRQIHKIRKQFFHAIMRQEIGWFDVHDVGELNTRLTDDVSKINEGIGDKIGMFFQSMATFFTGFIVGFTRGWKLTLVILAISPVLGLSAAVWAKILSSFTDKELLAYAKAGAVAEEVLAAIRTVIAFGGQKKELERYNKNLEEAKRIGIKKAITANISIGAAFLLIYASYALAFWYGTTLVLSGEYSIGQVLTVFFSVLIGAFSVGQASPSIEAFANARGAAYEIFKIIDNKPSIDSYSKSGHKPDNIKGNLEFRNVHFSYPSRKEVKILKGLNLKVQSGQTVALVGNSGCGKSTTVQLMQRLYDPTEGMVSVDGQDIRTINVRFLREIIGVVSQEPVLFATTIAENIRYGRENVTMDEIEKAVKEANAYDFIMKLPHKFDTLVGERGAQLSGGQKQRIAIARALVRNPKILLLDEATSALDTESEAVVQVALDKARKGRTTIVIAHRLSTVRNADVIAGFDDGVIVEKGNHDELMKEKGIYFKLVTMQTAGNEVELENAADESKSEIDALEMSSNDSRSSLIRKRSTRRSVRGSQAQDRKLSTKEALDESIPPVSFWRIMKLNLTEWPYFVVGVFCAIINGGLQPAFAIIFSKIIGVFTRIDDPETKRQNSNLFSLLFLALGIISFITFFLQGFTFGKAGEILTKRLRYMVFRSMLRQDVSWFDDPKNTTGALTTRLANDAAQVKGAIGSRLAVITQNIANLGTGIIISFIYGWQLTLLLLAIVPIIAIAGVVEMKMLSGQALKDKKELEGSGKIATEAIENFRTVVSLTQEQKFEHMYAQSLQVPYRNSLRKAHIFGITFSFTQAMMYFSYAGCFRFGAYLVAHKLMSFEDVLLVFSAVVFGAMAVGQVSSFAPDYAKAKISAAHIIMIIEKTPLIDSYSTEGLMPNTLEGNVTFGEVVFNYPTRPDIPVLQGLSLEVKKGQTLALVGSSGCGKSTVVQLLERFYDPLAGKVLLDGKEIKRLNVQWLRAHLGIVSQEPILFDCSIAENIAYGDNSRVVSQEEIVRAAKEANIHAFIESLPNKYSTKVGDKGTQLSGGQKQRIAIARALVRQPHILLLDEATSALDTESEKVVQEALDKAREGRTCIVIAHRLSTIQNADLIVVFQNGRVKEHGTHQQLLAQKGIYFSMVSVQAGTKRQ
From the text: (§1) See Doan et al. “Passive permeability and P-glycoprotein-mediated efflux differentiate central nervous system (CNS) and non-CNS marketed drugs”, J. Pharm. Exper. […] Desirable human BA/AB ratio is less than 2.0. […] See, for example, Desai, et al. Integration of in Silico and in Vitro Tools for Scaffold Optimization during Drug Discovery: Predicting P-glycoprotein Efflux” Mol. Pharmac.

[1] = target: P-glycoprotein (P-gp, rat Mdr1a) (Rattus norvegicus, UniProt Q6PSM0); assay: P-gp transport, experimental BA/AB ratio, rat LLC-Mdr1a; assay type: in vitro ADME; conditions: LLC-PK1; rat LLC-Mdrla; 1 μM substrate concentration
P-glycoprotein (P-gp, rat Mdr1a), sequence (Q6PSM0 1-1272): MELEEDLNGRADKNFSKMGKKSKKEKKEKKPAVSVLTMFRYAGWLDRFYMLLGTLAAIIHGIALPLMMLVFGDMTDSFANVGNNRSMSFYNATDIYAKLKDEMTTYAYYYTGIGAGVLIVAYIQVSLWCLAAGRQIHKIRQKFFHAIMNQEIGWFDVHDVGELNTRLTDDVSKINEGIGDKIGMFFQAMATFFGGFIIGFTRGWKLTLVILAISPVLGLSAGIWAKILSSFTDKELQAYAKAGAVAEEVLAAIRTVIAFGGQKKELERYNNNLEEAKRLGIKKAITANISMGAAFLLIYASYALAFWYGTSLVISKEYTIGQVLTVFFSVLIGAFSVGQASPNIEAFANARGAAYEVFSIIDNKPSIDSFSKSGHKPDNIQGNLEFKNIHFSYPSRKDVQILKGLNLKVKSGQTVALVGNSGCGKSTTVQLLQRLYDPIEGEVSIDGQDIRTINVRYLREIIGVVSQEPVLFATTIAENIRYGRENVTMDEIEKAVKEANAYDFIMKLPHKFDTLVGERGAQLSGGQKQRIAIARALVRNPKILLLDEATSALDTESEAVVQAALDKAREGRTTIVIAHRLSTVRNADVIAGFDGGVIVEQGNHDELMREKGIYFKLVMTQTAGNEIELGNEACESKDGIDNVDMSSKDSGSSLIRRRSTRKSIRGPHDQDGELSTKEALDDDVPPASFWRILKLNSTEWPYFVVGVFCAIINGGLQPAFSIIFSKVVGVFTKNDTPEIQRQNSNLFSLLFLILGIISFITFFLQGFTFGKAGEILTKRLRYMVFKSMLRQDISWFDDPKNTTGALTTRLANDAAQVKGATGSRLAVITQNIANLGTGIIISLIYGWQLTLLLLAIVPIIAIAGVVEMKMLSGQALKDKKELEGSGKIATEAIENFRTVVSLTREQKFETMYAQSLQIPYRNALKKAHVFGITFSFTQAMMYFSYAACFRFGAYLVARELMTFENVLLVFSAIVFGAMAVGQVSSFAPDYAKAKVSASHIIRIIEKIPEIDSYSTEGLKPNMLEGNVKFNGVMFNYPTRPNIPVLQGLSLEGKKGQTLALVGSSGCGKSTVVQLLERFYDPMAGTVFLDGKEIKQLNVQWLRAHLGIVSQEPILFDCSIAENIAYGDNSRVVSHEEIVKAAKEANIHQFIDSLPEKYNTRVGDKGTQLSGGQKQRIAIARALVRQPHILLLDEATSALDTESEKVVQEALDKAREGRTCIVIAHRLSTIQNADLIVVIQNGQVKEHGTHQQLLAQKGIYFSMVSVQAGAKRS
From the text: as §1

[2] = Rhesus PDE2 Ki (nM) - Lab B, Lab B
[3] = Lab B, read-out: Human PDE2 Ki (nM) - Lab B
[4] = Lab A, read-out: Rhesus PDE2 Ki (nM) - Lab A
[5] = Lab A, read-out: Human PDE2 Ki (nM) - Lab A
[6] = Lab B, read-out: Rhesus PDE2 Ki (nM) - Lab B

Rhesus PDE2A3, sequence (B3VTJ2 1-941): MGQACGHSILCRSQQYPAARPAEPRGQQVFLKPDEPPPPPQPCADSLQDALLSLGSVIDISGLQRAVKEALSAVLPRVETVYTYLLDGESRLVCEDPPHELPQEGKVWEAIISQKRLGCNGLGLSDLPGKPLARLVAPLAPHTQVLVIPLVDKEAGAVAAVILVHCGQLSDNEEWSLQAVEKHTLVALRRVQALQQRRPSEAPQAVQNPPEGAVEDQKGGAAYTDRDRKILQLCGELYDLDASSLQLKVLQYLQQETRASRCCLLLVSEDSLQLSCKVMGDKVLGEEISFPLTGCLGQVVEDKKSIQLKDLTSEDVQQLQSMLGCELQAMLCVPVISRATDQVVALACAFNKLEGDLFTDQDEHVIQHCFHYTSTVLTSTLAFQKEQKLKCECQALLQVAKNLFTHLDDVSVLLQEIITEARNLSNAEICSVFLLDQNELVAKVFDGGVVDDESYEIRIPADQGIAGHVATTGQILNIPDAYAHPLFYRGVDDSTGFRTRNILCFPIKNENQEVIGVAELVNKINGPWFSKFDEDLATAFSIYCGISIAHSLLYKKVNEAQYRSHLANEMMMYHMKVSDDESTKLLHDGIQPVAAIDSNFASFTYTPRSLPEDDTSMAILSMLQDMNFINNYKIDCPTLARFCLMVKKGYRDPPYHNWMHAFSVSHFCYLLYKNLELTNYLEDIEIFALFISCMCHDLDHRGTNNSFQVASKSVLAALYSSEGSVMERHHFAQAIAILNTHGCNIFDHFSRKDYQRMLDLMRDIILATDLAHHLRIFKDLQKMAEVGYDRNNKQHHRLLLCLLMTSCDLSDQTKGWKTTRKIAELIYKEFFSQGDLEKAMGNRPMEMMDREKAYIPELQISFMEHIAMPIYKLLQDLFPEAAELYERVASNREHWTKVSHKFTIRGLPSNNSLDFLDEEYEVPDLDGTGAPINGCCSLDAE

SMILES	Ki (Rhesus PDE2A3; [2])	Ki (human PDE2A1; [3])	efflux ratio at 1 μM (P-glycoprotein (P-gp))	efflux ratio at 1 μM [1]	Ki (Rhesus PDE2A3; [4])	Ki (human PDE2A1; [5])	Ki (Rhesus PDE2A3; [6])
CC(C)C(C)(NC(=O)c1cc(=O)[nH]c(N(C)C)n1)c1ccc(S(F)(F)(F)(F)F)cc1 (single isomer, unassigned) [Example 173, (S)- or (R)-2-(dimethylamino)-N-{1,2-dimethyl-1-[4-(pentafluoro-λ^6-sulfanyl)phenyl]propyl}-6-oxo-1,6-dihydropyrimidine-4-carboxamide]	6.6 nM	6.5 nM	0.8	3.6	–	–	–
O=C(NC1(c2ccc(C(F)(F)F)c(F)c2)CC1)c1cc(=O)[nH]c(N2CCCC2)n1 [Example 1, N-(1-(3-fluoro-4-(trifluoromethyl)phenyl)cyclopropyl)-6-oxo-2-(pyrrolidin-1-yl)-1,6-dihydropyrimidine-4-carboxamide]	–	–	0.8	7.2	1.3 nM	0.48 nM	–
CN(C)c1nc(C(=O)N[C@@H](c2ccc(C(F)(F)F)cc2)C(C)(C)C)cc(=O)[nH]1 [Example 2, (R)—N-(2,2-dimethyl-1-(4-(trifluoromethyl)phenyl)propyl)-2-(dimethylamino)-6-oxo-1,6-dihydropyrimidine-4-carboxamide]	0.11 nM	0.15 nM	0.6	2.6	–	–	–
CN(C)c1nc(C(=O)N[C@@H](c2ccc(S(F)(F)(F)(F)F)cc2)C2CC2)cc(=O)[nH]1 [Example 4, (R)—N-(cyclopropyl(4-(pentafluoro-λ^6-sulfanyl)phenyl)methyl)-2-(dimethylamino)-6-oxo-1,6-dihydropyrimidine-4-carboxamide]	–	1 nM	0.6	3.1	–	–	1.2 nM
CC[C@@H](NC(=O)c1cc(=O)[nH]c(N(C)C)n1)c1ccc(S(F)(F)(F)(F)F)cc1 [Example 5, (R)-2-(dimethylamino)-6-oxo-N-(1-(4-(pentafluoro-λ^6-sulfanyl)phenyl)propyl)-1,6-dihydropyrimidine-4-carboxamide]	–	1.3 nM	0.5	3.6	0.69 nM	–	1.5 nM
C[C@@H](NC(=O)c1cc(=O)[nH]c(N2CCCC2)n1)c1ccc(C(F)(F)F)cc1 [Example 6, (R)-6-oxo-2-(pyrrolidin-1-yl)-N-(1-(4-(trifluoromethyl)phenyl)ethyl)-1,6-dihydropyrimidine-4-carboxamide]	–	–	0.5	3.2	2.5 nM	1.7 nM	–
C[C@@H](NC(=O)c1cc(=O)[nH]c(N2CCC2)n1)c1ccc(C(F)(F)F)cc1 [Example 10, (R)-2-(azetidin-1-yl)-6-oxo-N-(1-(4-(trifluoromethyl)phenyl)ethyl)-1,6-dihydropyrimidine-4-carboxamide]	–	–	0.5	3.1	8.5 nM	8.2 nM	–
C[C@@H](NC(=O)c1cc(=O)[nH]c(N2CC[C@H](F)C2)n1)c1ccc(C(F)(F)F)cc1 [Example 12, 2-((S)-3-fluoropyrrolidin-1-yl)-6-oxo-N—((R)-1-(4-(trifluoromethyl)phenyl)ethyl)-1,6-dihydropyrimidine-4-carboxamide]	–	–	0.7	9	4.5 nM	1.8 nM	–
C[C@@H](NC(=O)c1cc(=O)[nH]c(N2CCC(F)(F)C2)n1)c1ccc(C(F)(F)F)cc1 [Example 13, (R)-2-(3,3-difluoropyrrolidin-1-yl)-6-oxo-N-(1-(4-(trifluoromethyl)phenyl)ethyl)-16-dihydropyrimidine-4-carboxamide]	–	–	0.6	5.9	13 nM	9.2 nM	–
C[C@@H](NC(=O)c1cc(=O)[nH]c(N2CC(F)C2)n1)c1ccc(C(F)(F)F)cc1 [Example 23, 2-(3-Fluoroazetidin-1-yl)-6-oxo-N-{(1R)-1-[4-(trifluoromethyl)phenyl]ethyl}-1,6-dihydropyrimidine-4-carboxamide]	–	–	1.4	7.6	27 nM	16 nM	–
O=C(N[C@@H](c1ccc(C(F)(F)F)cc1)C1CC1)c1cc(=O)[nH]c(N2CCCC2)n1 [Example 26]	–	–	0.9	4.5	1.4 nM	0.34 nM	–
O=C(N[C@@H](c1ccc(SC(F)(F)F)cc1)C1CC1)c1cc(=O)[nH]c(N2CCCC2)n1 [Example 27, N-[(R)-cyclopropyl{4-[(trifluoromethyl)sulfanyl]phenyl}methyl]-6-oxo-2-pyrrolidin-1-yl-1,6-dihydropyrimidine-4-carboxamide]	–	–	0.8	7	0.58 nM	0.21 nM	–
CC(C)[C@@H](NC(=O)c1cc(=O)[nH]c(N(C)C)n1)c1ccc(SC(F)(F)F)cc1 [Example 30, 2-(dimethylamino)-N-[(1R)-2-methyl-1-{4-[(trifluoromethyl)sulfanyl]phenyl}propyl]-6-oxo-1,6-dihydropyrimidine-4-carboxamide]	–	0.37 nM	0.4	2.6	0.19 nM	≤ 5.1 nM	0.22 nM
CN(C)c1nc(C(=O)N[C@@H](c2ccc(CC(F)(F)F)cc2)C(C)(C)C)cc(=O)[nH]1 [Example 31, 2-(dimethylamino)-N-{(1R)-2,2-dimethyl-1-[4-(2,2,2-trifluoroethyl)phenyl]propyl}-6-oxo-1,6-dihydropyrimidine-4-carboxamide]	–	0.51 nM	1.5	9.7	–	–	0.42 nM
CN(C)c1nc(C(=O)N[C@@H](c2ccc(OC(F)F)cc2)C(C)(C)C)cc(=O)[nH]1 [Example 34, N-{(1R)-1-[4-(difluoromethoxy)phenyl]-2,2-dimethylpropyl}-2-(dimethylamino)-6-oxo-1,6-dihydropyrimidine-4-carboxamide]	–	0.39 nM	2	12.7	–	–	0.46 nM
CN(C)c1nc(C(=O)N[C@@H](c2ccc(C3CC3)cc2)C(C)(C)C)cc(=O)[nH]1 [Example 35, N-[(1R)-1-(4-cyclopropylphenyl)-2,2-dimethylpropyl]-2-(dimelhylamino)-6-oxo-1,6-dihydropyrimidine-4-carboxamide]	–	0.11 nM	0.5	3.6	–	–	0.12 nM
CN(C)c1nc(C(=O)N[C@@H](c2ccc(C(F)(F)F)cc2F)C(C)(C)C)cc(=O)[nH]1 [Example 37, 2-(dimethylamino)-N-{(1R)-1-[2-fluoro-4-(trifluoromethyl)phenyl]-2,2-dimethylpropyl}-6-oxo-1,6-dihydropyrimidine-4-carboxamide]	–	0.13 nM	1	1.2	–	–	0.11 nM
C[C@@H](NC(=O)c1cc(=O)[nH]c(N(C)C)n1)c1ccc(C2CC2)c(F)c1 [Example 40, N-[(1R)-1-(4-cyclopropyl-3-fluorophenyl)ethyl]-2-(dimethylamino)-6-oxo-1,6-dihydropyrimidine-4-carboxamide]	–	1.02 nM	0.5	2.4	–	–	0.87 nM
CC(C)[C@@H](NC(=O)c1cc(=O)[nH]c(N(C)C)n1)c1ccc(C2CC2)c(F)c1 [Example 41, N-[(1R)-1-(4-cyclopropyl-3-fluorophenyl)-2-methylpropyl]-2-(dimethylamino)-6-oxo-1,6-dihydropyrimidine-4-carboxamide]	–	0.36 nM	0.4	3.6	–	–	0.31 nM
CN(C)c1nc(C(=O)N[C@@H](c2ccc(C(F)(F)F)c(F)c2)C2(C)CC2)cc(=O)[nH]1 [Example 42, 2-(dimethylamino)-N-[(R)-[3-fluoro-4-(trifluoromethyl)phenyl](1-methylcyclopropyl)methyl]-6-oxo-1,6-dihydropyrimidine-4-carboxamide]	–	0.44 nM	0.7	3	–	–	0.45 nM
CN(C)c1nc(C(=O)N[C@@H](c2ccc(C(F)(F)F)cc2)C2(C)CC2)cc(=O)[nH]1 [Example 43, 2-(dimethylamino)-N-{(R)-(1-methylcyclopropyl)[4-(trifluoromethyl)phenyl]methyl}-6-oxo-1,6-dihydropyrimidine-4-carboxamide]	–	0.32 nM	0.7	2.3	–	–	0.23 nM
CN(C)c1nc(C(=O)N[C@@H](c2ccc(C(C)(C)C)cc2)C2(C)CC2)cc(=O)[nH]1 [Example 44, N-[(R)-(4-tert-butylphenyl)(1-methylcyclopropyl)methyl]-2-(dimethylamino)-6-oxo-1,6-dihydropyrimidine-4-carboxamide]	–	1.5 nM	0.7	2.1	–	–	1.6 nM
CN(C)c1nc(C(=O)NC2(c3ccc(S(F)(F)(F)(F)F)cc3)CC2)cc(=O)[nH]1 [Example 45, 2-(dimethylamino)-6-oxo-N-{1-[4-(pentafluoro-λ^6-sulfanyl)phenyl]cyclopropyl}-1,6-dihydropyrimidine-4-carboxamide]	–	1.7 nM	0.6	10.1	–	–	2.1 nM
